Laboratory results from US10344060B2 (priority 2013, dated 2019).

Key:
Experiment in all cases: cell-based
[1] = target: hNav1.7 (Homo sapiens, UniProt Q15858); format: cell-based; settings: Table 12; PatchXpress, tonic block; read-out: PX hNav1.7 Tonic IC50
[2] = target: hNav1.5 (Homo sapiens, UniProt Q14524); settings: for Nav1.5/Nav1.7: ratio of PX tonic IC50 values
[3] = target: hNav1.4 (Homo sapiens, UniProt P35499); format: cell-based; settings: for Nav1.4/Nav1.7: ratio of PX tonic IC50 values
Sequence of hNav1.4 (P35499 whole entry): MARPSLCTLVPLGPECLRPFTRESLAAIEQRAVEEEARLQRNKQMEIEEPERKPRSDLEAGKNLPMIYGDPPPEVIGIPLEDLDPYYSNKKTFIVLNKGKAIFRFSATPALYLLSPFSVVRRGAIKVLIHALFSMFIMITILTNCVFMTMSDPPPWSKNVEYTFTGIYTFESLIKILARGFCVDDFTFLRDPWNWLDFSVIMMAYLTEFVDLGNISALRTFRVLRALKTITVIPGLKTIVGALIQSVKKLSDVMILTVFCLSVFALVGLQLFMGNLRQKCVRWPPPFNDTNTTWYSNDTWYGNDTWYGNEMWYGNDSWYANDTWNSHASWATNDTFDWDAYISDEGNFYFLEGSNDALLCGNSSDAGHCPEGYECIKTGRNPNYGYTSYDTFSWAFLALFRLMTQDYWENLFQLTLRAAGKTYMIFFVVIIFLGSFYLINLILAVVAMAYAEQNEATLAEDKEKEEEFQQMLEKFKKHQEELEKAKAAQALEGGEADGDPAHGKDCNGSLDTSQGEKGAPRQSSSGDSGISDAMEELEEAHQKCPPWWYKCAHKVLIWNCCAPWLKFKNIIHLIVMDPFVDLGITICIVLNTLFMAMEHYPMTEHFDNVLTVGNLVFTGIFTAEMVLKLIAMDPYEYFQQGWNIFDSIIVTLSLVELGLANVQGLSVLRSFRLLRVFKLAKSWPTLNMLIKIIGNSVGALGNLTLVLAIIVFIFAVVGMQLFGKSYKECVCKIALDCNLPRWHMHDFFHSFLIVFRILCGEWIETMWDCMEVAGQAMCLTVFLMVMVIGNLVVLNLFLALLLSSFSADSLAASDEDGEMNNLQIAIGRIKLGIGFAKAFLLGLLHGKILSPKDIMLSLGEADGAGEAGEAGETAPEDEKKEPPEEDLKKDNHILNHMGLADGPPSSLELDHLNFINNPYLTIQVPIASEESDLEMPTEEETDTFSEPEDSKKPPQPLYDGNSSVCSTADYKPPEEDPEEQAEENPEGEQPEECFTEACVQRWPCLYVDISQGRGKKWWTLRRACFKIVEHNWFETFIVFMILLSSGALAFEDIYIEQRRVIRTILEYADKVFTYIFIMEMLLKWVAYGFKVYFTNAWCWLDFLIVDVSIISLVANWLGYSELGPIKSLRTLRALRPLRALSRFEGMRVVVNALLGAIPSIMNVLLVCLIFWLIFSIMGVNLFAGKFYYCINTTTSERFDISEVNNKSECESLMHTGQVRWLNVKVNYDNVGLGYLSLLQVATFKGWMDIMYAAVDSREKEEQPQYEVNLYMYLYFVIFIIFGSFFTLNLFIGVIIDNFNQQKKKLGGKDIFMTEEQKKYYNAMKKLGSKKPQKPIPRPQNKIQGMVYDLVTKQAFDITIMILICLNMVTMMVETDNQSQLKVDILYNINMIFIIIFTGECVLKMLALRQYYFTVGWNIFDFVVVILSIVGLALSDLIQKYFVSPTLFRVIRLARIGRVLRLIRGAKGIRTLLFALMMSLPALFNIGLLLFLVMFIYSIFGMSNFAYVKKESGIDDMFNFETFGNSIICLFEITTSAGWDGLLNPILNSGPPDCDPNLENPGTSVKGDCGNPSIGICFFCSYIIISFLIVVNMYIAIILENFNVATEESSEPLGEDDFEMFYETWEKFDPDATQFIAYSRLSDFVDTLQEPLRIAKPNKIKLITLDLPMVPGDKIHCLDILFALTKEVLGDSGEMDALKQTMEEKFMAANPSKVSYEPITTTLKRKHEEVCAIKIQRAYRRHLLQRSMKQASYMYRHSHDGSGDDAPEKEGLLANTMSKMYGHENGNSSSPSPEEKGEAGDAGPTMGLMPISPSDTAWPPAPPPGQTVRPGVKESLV

Sequence of hNav1.5 (Q14524 whole entry): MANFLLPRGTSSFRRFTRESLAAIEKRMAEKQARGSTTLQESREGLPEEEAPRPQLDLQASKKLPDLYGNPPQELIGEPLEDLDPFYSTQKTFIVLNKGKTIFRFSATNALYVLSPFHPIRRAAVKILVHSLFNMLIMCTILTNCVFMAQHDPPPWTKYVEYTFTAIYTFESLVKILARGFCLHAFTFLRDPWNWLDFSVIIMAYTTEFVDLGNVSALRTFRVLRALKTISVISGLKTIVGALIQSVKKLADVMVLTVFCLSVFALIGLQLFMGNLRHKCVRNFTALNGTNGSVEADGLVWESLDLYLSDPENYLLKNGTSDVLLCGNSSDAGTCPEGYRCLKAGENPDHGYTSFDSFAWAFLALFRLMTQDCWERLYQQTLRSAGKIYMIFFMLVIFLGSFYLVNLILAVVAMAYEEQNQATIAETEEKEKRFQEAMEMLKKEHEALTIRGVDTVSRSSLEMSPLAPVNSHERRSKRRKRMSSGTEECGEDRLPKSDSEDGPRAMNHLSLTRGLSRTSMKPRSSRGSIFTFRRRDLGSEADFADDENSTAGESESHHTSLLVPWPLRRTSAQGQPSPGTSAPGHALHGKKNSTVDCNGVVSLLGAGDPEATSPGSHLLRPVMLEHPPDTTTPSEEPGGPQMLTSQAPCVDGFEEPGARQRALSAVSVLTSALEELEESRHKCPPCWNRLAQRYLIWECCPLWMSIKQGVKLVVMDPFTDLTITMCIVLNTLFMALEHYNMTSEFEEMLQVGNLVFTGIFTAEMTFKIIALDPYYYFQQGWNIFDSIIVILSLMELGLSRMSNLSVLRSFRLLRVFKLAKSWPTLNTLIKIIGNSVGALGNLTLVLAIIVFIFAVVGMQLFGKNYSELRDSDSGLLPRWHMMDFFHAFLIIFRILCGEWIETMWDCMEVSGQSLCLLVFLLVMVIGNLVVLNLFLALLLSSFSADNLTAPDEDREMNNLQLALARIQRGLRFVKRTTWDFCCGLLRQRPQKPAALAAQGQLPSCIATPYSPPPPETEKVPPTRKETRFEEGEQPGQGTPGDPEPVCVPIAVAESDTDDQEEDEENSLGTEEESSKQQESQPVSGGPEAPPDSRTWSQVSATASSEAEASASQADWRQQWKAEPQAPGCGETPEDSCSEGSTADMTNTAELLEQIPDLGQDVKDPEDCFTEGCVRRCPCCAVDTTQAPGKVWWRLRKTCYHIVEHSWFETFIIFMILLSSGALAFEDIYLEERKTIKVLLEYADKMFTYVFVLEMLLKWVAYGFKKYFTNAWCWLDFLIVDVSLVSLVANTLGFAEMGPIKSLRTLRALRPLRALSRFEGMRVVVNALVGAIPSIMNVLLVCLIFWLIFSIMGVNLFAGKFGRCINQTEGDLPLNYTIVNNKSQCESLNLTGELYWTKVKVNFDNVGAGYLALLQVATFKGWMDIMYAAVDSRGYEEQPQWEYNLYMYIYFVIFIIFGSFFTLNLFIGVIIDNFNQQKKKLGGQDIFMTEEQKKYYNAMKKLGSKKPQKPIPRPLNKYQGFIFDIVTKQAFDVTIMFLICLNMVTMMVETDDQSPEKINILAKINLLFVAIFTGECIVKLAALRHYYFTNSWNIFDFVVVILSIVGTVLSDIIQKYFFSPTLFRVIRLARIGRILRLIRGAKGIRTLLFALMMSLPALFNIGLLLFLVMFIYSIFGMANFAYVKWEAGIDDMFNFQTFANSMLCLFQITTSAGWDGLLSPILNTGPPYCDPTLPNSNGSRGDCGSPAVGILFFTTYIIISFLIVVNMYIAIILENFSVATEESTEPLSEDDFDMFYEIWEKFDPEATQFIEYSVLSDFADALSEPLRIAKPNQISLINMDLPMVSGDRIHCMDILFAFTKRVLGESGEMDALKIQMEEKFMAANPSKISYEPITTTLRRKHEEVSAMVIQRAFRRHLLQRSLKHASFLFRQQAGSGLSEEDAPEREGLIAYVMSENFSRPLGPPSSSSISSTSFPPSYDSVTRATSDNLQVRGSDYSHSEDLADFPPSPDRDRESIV

Structure (SMILES) | Nav1.5/Nav1.7 ([2]; Table 12) | Nav1.4/Nav1.7 ([3]; Table 12) | also measured
C#CC[C@H](N)C(=O)N[C@@H](Cc1ccc(O)cc1)C(=O)N[C@H]1CSSC[C@@H]2NC(=O)[C@@H]3CSSC[C@@H](C(=O)N[C@@H](CCCNC(=N)N)C(=O)N[C@@H](CCCCN)C(=O)N[C@H](C(=O)N[C@@H](Cc4c[nH]c5ccccc45)C(N)=O)[C@@H](C)CC)NC(=O)[C@H](Cc4c[nH]c5ccccc45)NC(=O)[C@H](CC(C)C)NC(=O)[C@H](CCCCN)NC(=O)[C@H](CSSC[C@H](NC(=O)[C@H]([C@@H](C)O)NC(=O)[C@H](Cc4c[nH]c5ccccc45)NC(=O)[C@H](CCCC)NC(=O)[C@H](Cc4c[nH]c5ccccc45)NC(=O)[C@H](CCCCN)NC(=O)[C@H](CCC(N)=O)NC1=O)C(=O)N[C@@H](CC(=O)O)C(=O)N[C@@H](CO)C(=O)N[C@@H](CCCCN)C(=O)N[C@@H](CCCNC(=N)N)C(=O)N[C@@H](C)C(=O)N3)NC(=O)[C@H](CCCNC(=N)N)NC(=O)[C@H](CC(C)C)NC(=O)CNC(=O)[C@H](CCC(=O)O)NC2=O [compound 296] | 479 | 8 | IC50 [1]: 4.79 nM; IC50 ([2]; Table 12, PatchXpress, tonic block, read-out: PX hNav1.5 Tonic IC50): 2290 nM; IC50 ([3]; Table 12, PatchXpress, tonic block, read-out: PX hNav1.4 Tonic IC50): 37 nM
C#CC[C@@H]1NC(=O)[C@H](CC(=O)O)NC(=O)[C@@H]2CSSC[C@@H]3NC(=O)[C@H](CCC(=O)O)NC(=O)[C@H](CC(C)C)NC(=O)CNC(=O)[C@H](CCC(=O)O)NC(=O)[C@H](CSSC[C@H](NC(=O)[C@@H](N)Cc4ccc(O)cc4)C(=O)N[C@@H](CCC(N)=O)C(=O)N[C@@H](CCCCN)C(=O)N[C@@H](Cc4c[nH]c5ccccc45)C(=O)N[C@@H](CCCC)C(=O)N[C@@H](Cc4c[nH]c5ccccc45)C(=O)N[C@@H]([C@@H](C)O)C(=O)N2)NC(=O)[C@H](CSSC[C@@H](C(=O)N[C@@H](CCCNC(=N)N)C(=O)N[C@@H](CCCCN)C(=O)N[C@@H](Cc2ccc(O)cc2)C(=O)N[C@H](C(N)=O)[C@@H](C)CC)NC(=O)[C@H](Cc2c[nH]c4ccccc24)NC(=O)[C@H](CC(C)C)NC(=O)[C@H](CCCCN)NC3=O)NC(=O)[C@H](C)NC(=O)[C@H](CCCNC(=N)N)NC(=O)[C@H](CCCCN)NC1=O [compound 315] | 1914 | 643 | –
C#CC[C@@H]1NC(=O)[C@H](CCCNC(=N)N)NC(=O)[C@H](CCCCN)NC(=O)[C@H](CO)NC(=O)[C@H](CC(=O)O)NC(=O)[C@@H]2CSSC[C@@H]3NC(=O)[C@H](CCC(=O)O)NC(=O)[C@H](CC(C)C)NC(=O)CNC(=O)[C@H](CCC(=O)O)NC(=O)[C@H](CSSC[C@H](NC(=O)[C@@H](N)Cc4ccc(O)cc4)C(=O)N[C@@H](CCC(N)=O)C(=O)N[C@@H](CCCCN)C(=O)N[C@@H](Cc4c[nH]c5ccccc45)C(=O)N[C@@H](CCCC)C(=O)N[C@@H](Cc4c[nH]c5ccccc45)C(=O)N[C@@H]([C@@H](C)O)C(=O)N2)NC(=O)[C@H](CSSC[C@@H](C(=O)N[C@@H](CCCNC(=N)N)C(=O)N[C@@H](CCCCN)C(=O)N[C@@H](Cc2ccc(O)cc2)C(=O)N[C@H](C(N)=O)[C@@H](C)CC)NC(=O)[C@H](Cc2c[nH]c4ccccc24)NC(=O)[C@H](CC(C)C)NC(=O)[C@H](CCCCN)NC3=O)NC1=O [compound 316] | 2099 | 402 | –
C#CC[C@@H]1NC(=O)[C@H](CCCNC(=N)N)NC(=O)[C@H](CCCCN)NC(=O)[C@H](CO)NC(=O)[C@H](CC(=O)O)NC(=O)[C@@H]2CSSC[C@@H]3NC(=O)[C@H](CCCNC(=N)N)NC(=O)[C@H](CC(C)C)NC(=O)CNC(=O)[C@H](CCC(=O)O)NC(=O)[C@H](CSSC[C@H](NC(=O)[C@@H](N)Cc4ccc(O)cc4)C(=O)N[C@@H](CCC(N)=O)C(=O)N[C@@H](CCCCN)C(=O)N[C@@H](Cc4c[nH]c5ccccc45)C(=O)N[C@@H](CCCC)C(=O)N[C@@H](Cc4c[nH]c5ccccc45)C(=O)N[C@@H]([C@@H](C)O)C(=O)N2)NC(=O)[C@H](CSSC[C@@H](C(=O)N[C@@H](CCCNC(=N)N)C(=O)N[C@@H](CCCCN)C(=O)N[C@@H](CCC(=O)O)C(=O)N[C@H](C(N)=O)[C@@H](C)CC)NC(=O)[C@H](Cc2c[nH]c4ccccc24)NC(=O)[C@H](CC(C)C)NC(=O)[C@H](CCCCN)NC3=O)NC1=O [compound 331] | 7119 | 213 | –
C#CC[C@H](N)C(=O)N[C@H]1CSSC[C@@H]2NC(=O)[C@@H]3CSSC[C@@H](C(=O)N[C@@H](CCCNC(=N)N)C(=O)N[C@@H](CCCCN)C(=O)N[C@H](C(=O)N[C@H](C(N)=O)[C@@H](C)CC)[C@@H](C)CC)NC(=O)[C@H](Cc4c[nH]c5ccccc45)NC(=O)[C@H](CC(C)C)NC(=O)[C@H](CCCCN)NC(=O)[C@H](CSSC[C@H](NC(=O)[C@H]([C@@H](C)O)NC(=O)[C@H](Cc4c[nH]c5ccccc45)NC(=O)[C@H](CCCC)NC(=O)[C@H](Cc4c[nH]c5ccccc45)NC(=O)[C@H](CCCCN)NC(=O)[C@H](CCC(N)=O)NC1=O)C(=O)N[C@@H](CC(=O)O)C(=O)N[C@@H](CO)C(=O)N[C@@H](CCCCN)C(=O)N[C@@H](CCCNC(=N)N)C(=O)N[C@@H](C)C(=O)N3)NC(=O)[C@H](CCC(=O)O)NC(=O)[C@H](CC(C)C)NC(=O)CNC(=O)[C@H](CCC(=O)O)NC2=O [compound 343] | 1011 | 300 | –
CCCC[C@@H]1NC(=O)[C@H](Cc2c[nH]c3ccccc23)NC(=O)[C@H](CCCCN)NC(=O)[C@H](CCC(N)=O)NC(=O)[C@@H](NC(=O)[C@H](Cc2ccc(O)cc2)NC(=O)[C@@H](N)CCN=[N+]=[N-])CSSC[C@@H]2NC(=O)[C@@H]3CSSC[C@@H](C(=O)N[C@@H](CCCNC(=N)N)C(=O)N[C@@H](CCCCN)C(=O)N[C@H](C(=O)N[C@@H](Cc4c[nH]c5ccccc45)C(N)=O)[C@@H](C)CC)NC(=O)[C@H](Cc4c[nH]c5ccccc45)NC(=O)[C@H](CC(C)C)NC(=O)[C@H](CCCCN)NC(=O)[C@H](CSSC[C@H](NC(=O)[C@H]([C@@H](C)O)NC(=O)[C@H](Cc4c[nH]c5ccccc45)NC1=O)C(=O)N[C@@H](CC(=O)O)C(=O)N[C@@H](CO)C(=O)N[C@@H](CCCCN)C(=O)N[C@@H](CCCNC(=N)N)C(=O)N[C@@H](C)C(=O)N3)NC(=O)[C@H](CCC(=O)O)NC(=O)[C@H](CC(C)C)NC(=O)CNC(=O)[C@H](CCC(=O)O)NC2=O [compound 308] | 3351 | 1068 | –
C#CC[C@H](N)C(=O)NCCOCCOCCOCCOCCC(=O)NCCCC[C@@H]1NC(=O)[C@@H]2CSSC[C@H](NC(=O)[C@H](Cc3ccc(O)cc3)NC(=O)[C@@H](N)CC#N)C(=O)N[C@@H](CCC(N)=O)C(=O)N[C@@H](CCCCN)C(=O)N[C@@H](Cc3c[nH]c4ccccc34)C(=O)N[C@@H](CCCC)C(=O)N[C@@H](Cc3c[nH]c4ccccc34)C(=O)N[C@@H]([C@@H](C)O)C(=O)N[C@H]3CSSC[C@H](NC(=O)[C@H](CCCNC(=N)N)NC(=O)[C@H](CC(C)C)NC(=O)CNC1=O)C(=O)N[C@@H](CCCCN)C(=O)N[C@@H](CC(C)C)C(=O)N[C@@H](Cc1c[nH]c4ccccc14)C(=O)N[C@H](C(=O)N[C@@H](CCCNC(=N)N)C(=O)N[C@@H](CCCCN)C(=O)N[C@H](C(=O)N[C@H](C(N)=O)[C@@H](C)CC)[C@@H](C)CC)CSSC[C@H](NC(=O)[C@H](C)NC(=O)[C@H](CCCNC(=N)N)NC(=O)[C@H](CCCCN)NC(=O)[C@H](CO)NC(=O)[C@H](CC(=O)O)NC3=O)C(=O)N2 [compound 385] | 0 | 0 | –
CCCC[C@@H]1NC(=O)[C@H](Cc2c[nH]c3ccccc23)NC(=O)[C@H](CCCCN)NC(=O)[C@H](CCC(N)=O)NC(=O)[C@@H](NC(=O)[C@@H](N)CCCCN=[N+]=[N-])CSSC[C@@H]2NC(=O)[C@@H]3CSSC[C@@H](C(=O)N[C@@H](CCCNC(=N)N)C(=O)N[C@@H](CCCCN)C(=O)N[C@H](C(=O)N[C@@H](Cc4c[nH]c5ccccc45)C(N)=O)[C@@H](C)CC)NC(=O)[C@H](Cc4c[nH]c5ccccc45)NC(=O)[C@H](CC(C)C)NC(=O)[C@H](CCCCN)NC(=O)[C@H](CSSC[C@H](NC(=O)[C@H]([C@@H](C)O)NC(=O)[C@H](Cc4c[nH]c5ccccc45)NC1=O)C(=O)N[C@@H](CC(=O)O)C(=O)N[C@@H](CO)C(=O)N[C@@H](CCCCN)C(=O)N[C@@H](CCCNC(=N)N)C(=O)N[C@@H](C)C(=O)N3)NC(=O)[C@H](CCC(=O)O)NC(=O)[C@H](CC(C)C)NC(=O)CNC(=O)[C@H](CCC(=O)O)NC2=O [compound 304] | 662 | 449 | –
CCCC[C@@H]1NC(=O)[C@H](Cc2c[nH]c3ccccc23)NC(=O)[C@H](CCCCN)NC(=O)[C@H](CCC(N)=O)NC(=O)[C@@H](NC(=O)[C@H](Cc2ccc(O)cc2)NC(=O)[C@@H](N)Cc2cn(CCOCCOCCOCCOCCOCCOCCOCCOCCOCCOCCOCCNC(=O)CSCc3ccccc3)nn2)CSSC[C@@H]2NC(=O)[C@@H]3CSSC[C@@H](C(=O)N[C@@H](CCCNC(=N)N)C(=O)N[C@@H](CCCCN)C(=O)N[C@H](C(=O)N[C@H](C(N)=O)[C@@H](C)CC)[C@@H](C)CC)NC(=O)[C@H](Cc4c[nH]c5ccccc45)NC(=O)[C@H](CC(C)C)NC(=O)[C@H](CCCCN)NC(=O)[C@H](CSSC[C@H](NC(=O)[C@H]([C@@H](C)O)NC(=O)[C@H](Cc4c[nH]c5ccccc45)NC1=O)C(=O)N[C@@H](CC(=O)O)C(=O)N[C@@H](CO)C(=O)N[C@@H](CCCCN)C(=O)N[C@@H](CCCNC(=N)N)C(=O)N[C@@H](C)C(=O)N3)NC(=O)[C@H](CCCNC(=N)N)NC(=O)[C@H](CC(C)C)NC(=O)CNC(=O)[C@H](CCC(=O)O)NC2=O [compound 427] | – | – | Nav1.5/Nav1.7 ([2]; Table 13): 1416; Nav1.4/Nav1.7 ([3]; Table 13): 9
